Data reported in ChEMBL document CHEMBL3244053, “Structural modification study of bis(substituted aminoalkylamino)anthraquinones. An evaluation of the relationship of the [2-[(2-hydroxyethyl)amino]ethyl]amino side chain with antineoplastic activity” (1979).
Calls of active or inactive are those of the source. No cut-off for these calls is given here.

Experiments:
[1] = test system: B16; experiment: Antineoplastic activity against mouse B16 cells allografted in BDF1 mouse at 16 mg/kg qd for 9 days relative to control; assay type: functional
[2] = test system: Colon 26; experiment: Antineoplastic activity against mouse Colon 26 cells allografted in CDF1 mouse assessed as survival at 8 mg/kg qd for 9 days; assay type: functional, organism-based; design: dose 8 mg/kg
[3] = test system: P388; experiment: Antineoplastic activity against mouse P388 cells allografted in CDF1 mouse assessed as survival at 4 mg/kg qd for 9 days; assay type: functional, organism-based; design: dose 4 mg/kg
[4] = test system: Colon 26; experiment: Antineoplastic activity against mouse Colon 26 cells allografted in CDF1 mouse at 4 mg/kg qd for 9 days relative to control; assay type: functional
[5] = test system: B16; experiment: Antineoplastic activity against mouse B16 cells allografted in BDF1 mouse at 1 mg/kg qd for 9 days relative to control; assay type: functional
[6] = test system: L1210; experiment: Antineoplastic activity against mouse L1210 cells allografted in CDF1 mouse at 16 mg/kg qd for 9 days relative to control; assay type: functional
[7] = test system: Colon 26; experiment: Antineoplastic activity against mouse Colon 26 cells allografted in CDF1 mouse at 8 mg/kg qd for 9 days relative to control; assay type: functional
[8] = test system: Colon 26; experiment: Antineoplastic activity against mouse Colon 26 cells allografted in CDF1 mouse at 2 mg/kg qd for 9 days relative to control; assay type: functional
[9] = test system: P388; experiment: Antineoplastic activity against mouse P388 cells allografted in CDF1 mouse assessed as survival at 16 mg/kg qd for 9 days; assay type: functional, organism-based; design: dose 16 mg/kg
[10] = test system: B16; experiment: Antineoplastic activity against mouse B16 cells allografted in BDF1 mouse assessed as survival at 16 mg/kg qd for 9 days; assay type: functional, organism-based; design: dose 16 mg/kg
[11] = test system: B16; experiment: Antineoplastic activity against mouse B16 cells allografted in BDF1 mouse assessed as survival at 2 mg/kg qd for 9 days; assay type: functional, organism-based; design: dose 2 mg/kg
[12] = test system: L1210; experiment: Antineoplastic activity against mouse L1210 cells allografted in CDF1 mouse assessed as survival at 16 mg/kg qd for 9 days; assay type: functional, organism-based; design: dose 16 mg/kg
[13] = test system: L1210; experiment: Antineoplastic activity against mouse L1210 cells allografted in CDF1 mouse assessed as survival at 4 mg/kg qd for 9 days; assay type: functional, organism-based; design: dose 4 mg/kg
[14] = test system: B16; experiment: Antineoplastic activity against mouse B16 cells allografted in BDF1 mouse assessed as survival at 4 mg/kg qd for 9 days; assay type: functional, organism-based; design: dose 4 mg/kg
[15] = test system: B16; experiment: Antineoplastic activity against mouse B16 cells allografted in BDF1 mouse assessed as survival at 8 mg/kg qd for 9 days; assay type: functional, organism-based; design: dose 8 mg/kg
[16] = test system: P388; experiment: Antineoplastic activity against mouse P388 cells allografted in CDF1 mouse at 16 mg/kg qd for 9 days relative to control; assay type: functional
[17] = test system: B16; experiment: Antineoplastic activity against mouse B16 cells allografted in BDF1 mouse at 4 mg/kg qd for 9 days relative to control; assay type: functional
[18] = test system: B16; experiment: Antineoplastic activity against mouse B16 cells allografted in BDF1 mouse at 8 mg/kg qd for 9 days relative to control; assay type: functional
[19] = test system: Colon 26; experiment: Antineoplastic activity against mouse Colon 26 cells allografted in CDF1 mouse assessed as survival at 2 mg/kg qd for 9 days; assay type: functional, organism-based; design: dose 2 mg/kg
[20] = test system: B16; experiment: Antineoplastic activity against mouse B16 cells allografted in BDF1 mouse assessed as survival at 1 mg/kg qd for 9 days; assay type: functional, organism-based; design: dose 1 mg/kg
[21] = test system: P388; experiment: Antineoplastic activity against mouse P388 cells allografted in CDF1 mouse at 4 mg/kg qd for 9 days relative to control; assay type: functional
[22] = test system: B16; experiment: Antineoplastic activity against mouse B16 cells allografted in BDF1 mouse at 2 mg/kg qd for 9 days relative to control; assay type: functional
[23] = test system: L1210; experiment: Antineoplastic activity against mouse L1210 cells allografted in CDF1 mouse at 8 mg/kg qd for 9 days relative to control; assay type: functional
[24] = test system: Colon 26; experiment: Antineoplastic activity against mouse Colon 26 cells allografted in CDF1 mouse assessed as survival at 4 mg/kg qd for 9 days; assay type: functional, organism-based; design: dose 4 mg/kg
[25] = test system: P388; experiment: Antineoplastic activity against mouse P388 cells allografted in CDF1 mouse assessed as survival at 2 mg/kg qd for 9 days; assay type: functional, organism-based; design: dose 2 mg/kg
[26] = test system: L1210; experiment: Antineoplastic activity against mouse L1210 cells allografted in CDF1 mouse assessed as survival at 2 mg/kg qd for 9 days; assay type: functional, organism-based; design: dose 2 mg/kg
[27] = test system: L1210; experiment: Antineoplastic activity against mouse L1210 cells allografted in CDF1 mouse at 4 mg/kg qd for 9 days relative to control; assay type: functional
[28] = test system: L1210; experiment: Antineoplastic activity against mouse L1210 cells allografted in CDF1 mouse at 2 mg/kg qd for 9 days relative to control; assay type: functional
[29] = test system: L1210; experiment: Antineoplastic activity against mouse L1210 cells allografted in CDF1 mouse assessed as survival at 8 mg/kg qd for 9 days; assay type: functional, organism-based; design: dose 8 mg/kg
[30] = test system: P388; experiment: Antineoplastic activity against mouse P388 cells allografted in CDF1 mouse at 2 mg/kg qd for 9 days relative to control; assay type: functional
[31] = test system: P388; experiment: Antineoplastic activity against mouse P388 cells allografted in CDF1 mouse at 8 mg/kg qd for 9 days relative to control; assay type: functional
[32] = test system: P388; experiment: Antineoplastic activity against mouse P388 cells allografted in CDF1 mouse assessed as survival at 8 mg/kg qd for 9 days; assay type: functional, organism-based; design: dose 8 mg/kg
[33] = test system: P388; experiment: Antineoplastic activity against mouse P388 cells allografted in CDF1 mouse assessed as survival at 1 mg/kg qd for 9 days; assay type: functional, organism-based; design: dose 1 mg/kg
[34] = test system: P388; experiment: Antineoplastic activity against mouse P388 cells allografted in CDF1 mouse at 1 mg/kg qd for 9 days relative to control; assay type: functional

O=C1c2ccccc2C(=O)c2c(NCCNCCO)ccc(NCCNCCO)c21 [AMETANTRONE]
T/C [1]: 225% | Activity [2]: Active | Activity [3]: Active | T/C [4]: 177% | T/C [5]: 151% | T/C [6]: 234% | T/C [7]: 201% | T/C [8]: 132% | Activity [9]: Active | Activity [10]: Active | Activity [11]: Active | Activity [12]: Active | Activity [13]: Active | Activity [14]: Active | Activity [15]: Active | T/C [16]: 321% | T/C [17]: 194% | T/C [18]: 204% | Activity [19]: Active | Activity [20]: Active | T/C [21]: 219% | T/C [22]: 172% | T/C [23]: 288% | Activity [24]: Active | Activity [25]: Active | Activity [26]: Active | T/C [27]: 193% | T/C [28]: 180% | Activity [29]: Active | T/C [30]: 200% | T/C [31]: 254% | Activity [32]: Active | Activity [33]: Active | T/C [34]: 155%
